The source of these data is patent US6452005B1, “JAK-3 inhibitors for treating allergic disorders” (Parker Hughes Institute, priority 1999, dated 2002).

For one experiment, the system named is RBL-2H3 mast cells. The experiment is described as follows: IgE/antigen-induced activation (cell spreading, microtubule organization) by confocal microscopy. It counts as cell-based, rat. The following applies: 30 μM, two hour incubation. On the procedure: RBL-2H3 cells were cultured overnight on 22×22 mm coverslips at a cell density of 0.01×10^6/ml with […] DNP-IgE. Sensitized RBL-2H3 cells were then treated with 30 μM WHI-P131, vehicle, or control compounds WHI-P258 and WHI-P112 prior to challenge with DNP-BSA, as described in the legend of FIG. 4. After stimulation with DNP-BSA for 1 hour, cells were fixed in cold methanol for 15 minutes followed by permeabilization with PBS containing 0.1% Triton X-100. […] After washing 3 times with PBS-0.1% Triton X-100, cells were incubated with fluorescein labeled secondary antibody (Zymed, San Francisco, Calif.) for another 40 minutes. Cells were washed three times to remove unbound antibody. DNA labeling was performed by incubation of coverslips with toto-3 (Molecular Probes, Eugene, Oreg.) for 10 minutes. Excessive dye was washed with PBS-0.1% Triton X-100. Cells were visualized under MRC 1024 Laser Scanning Microscope after mounting with Vectashield (Vector laboratories, Inc, Burlingame, Calif.), as previously reported.
Confocol Microscopy: Staining of mast cells with primary and secondary antibodies followed by confocal laser scanning microscopy was performed as previously described in detail (Uckun et. al., 1998, Clin. Cancer Res., 4:901-912). After staining with appropriate primary and secondary antibodies, cells were washed three times to remove unbound antibody. DNA labeling was performed by incubation of coverslips with toto-3 (Molecular Probes, Eugene, Oreg.) for 10 min. Excessive dye was washed with PBS-0.1% triton X-100. Cells were visualized under MRC 1024 Laser Scanning Microscope after mounting with Vectashield (Vector laboratories, Inc, Burlingame, Calif.).
In a systematic effort aimed at elucidating the biologic consequences of JAK3 inhibition in mast cells, we first sought to determine if the JAK3 inhibitor WHI-P131 could prevent the IgE receptor/FcεRI-mediated activation of mast cells. Since the IgE receptor/FcεRI-mediated activation of mast cells results in a distinct morphologic transformation with marked cell spreading due to membrane ruffling, microtubule formation and actin polymerization (Apgar, 1997), we evaluated the effects of WHI-P131 on the activation-associated transformation of shape and surface topography of RBL-2H3 mast cells using confocal laser scanning microscopy (Ghosh et. al., 1998).

Another experiment concerns SYK. The experiment is described as follows: SYK activation in RBL-2H3 mast cells after IgE receptor crosslinking. As to conditions: 30 μM.
A further experiment has as its system JAK3. The experiment is described as follows: JAK3 activation in RBL-2H3 mast cells after IgE receptor crosslinking. The following applies: 30 μM.
Experiment [1] concerns JAK3-dependent STAT activation. In words: EMSA, IL-2 triggered STAT activation in 32Dc11/IL2Rβ cells. It counts as cell-based. The procedure:
Electrophoretic Mobility Shift Assays (EMSAs). EMSAs were performed to examine the effects of dimethoxyquinazoline compounds on cytokine-induced STAT activation (Goodman et. al., 1998). […] Cells were collected after 15 minutes and resuspended in lysis buffer (100 mM Tris-HCl pH 8.0, 0.5% NP-40, 10% glycerol, […], 0.1 mM NaVO3, 50 mM NaF, 150 mM NaCl, 1 mM DTT, 3 μg/ml Aprotinin, 2 μg/ml Pepstatin A, 1 μg/ml Leupeptin and 0.2 mM PMSF). Lysates were precleared by centrifugation for 30 min. Cell extracts (approximately 10 μg) were incubated with 2 μg of poly(dI-dC) for 30 minutes, followed by a 30 minutes incubation with 1ng of poly. nucleotide kinase-^32P labeled double stranded DNA oligonucleotide representing the IRF-1 STAT DNA binding sequence (Santa Cruz Biotechnology, Santa Cruz, Calif.). Samples were resolved by non-denaturing PAGE and visualized by autoradiography.
In general terms: Mobility shift assays separate free from complexed probe on a gel.

Protocol for SYK: Cells were lysed at the indicated time points, and SYK immune complexes were subjected to kinase assays in the presence of cold ATP followed by APT immunoblotting (upper panels in 8C & 8D) as well as to SYK Western blot analysis (lower panels in 8C & 8D).
Immune-Complex Kinase Assays and Western Blot Analyses of Mast Cell Lysates. […] Cells were harvested, lysed (10 mM Tris pH 7.6, 100 mM NaCl, 1% Nonidet P-40, 10% glycerol, 50 mM NaF, 100 mM Na3VO4, 50 mg/ml phenylmethylsulfonyl fluoride, 10 mg/ml aprotonin, 10 mg/ml leupeptin), and the kinases were immunoprecipitated from the lysates, as reported (Uckun et. al., 1995, Science, 267:886-891; Uckun et. al., 1996, Science, 273:1096-1100). […] Immunoprecipitations, and immunoblotting using the ECL chemiluminescence detection system (Amersham Life Sciences) were conducted as described previously (Uckun et. al., 1996, Science, 273:1096-1100).

Regarding `COc1cc2ncnc(Nc3ccc(O)cc3)c2cc1OC` [WHI-P131, 4-(4′-Hydroxylphenyl)-amino-6,7-dimethoxyquinazoline], in the experiment with RBL-2H3 mast cells, the “IgE/antigen-induced mast cell activation (spreading and microtubule organization)” value is “prevented”; the “cells spindle shaped after IgE/antigen” value was 58%. Also, the “cells flattened after IgE/antigen” value with RBL-2H3 mast cells (93% without drug) was found to be 23%. For the same compound, in the experiment on SYK, the “SYK activation after IgE receptor/FcεRI crosslinking” value is “did not prevent”. Also, the “JAK3 activation after IgE receptor crosslinking” value with JAK3 is listed as “abrogated”. The “JAK3-dependent STAT activation after stimulation with IL-2” value in experiment [1] (10 μg/ml, 32Dc11/IL2Rβ cells) was “inhibited”. Further, in experiment [1] (100 μg/ml in FIG. 6E legend), the “IL-2 triggered JAK-3-dependent STAT activation” value was “inhibited”.
